Measurements published in patent publication US4202877A, “Antidermatomycotic agent” (Kureha Kagaku Kogyo Kabushiki Kaisha, priority 1977, dated 1980).
In brackets after ≈: the same amount, converted by molar mass.

Tests used:
[1] = Acute toxicity (LD50, mortality one week after administration, Litchfield-Wilcoxon; autopsy after oral administration); assay type: in vivo, ICR-JCL female mice; conditions: for LD50 at 168 h: mouse, in vivo, mice, 10 tested, one week after administration
Source text: Ortho-methoxycinnamaldehyde was suspended in a mixed sulution of 1 part of Tween (mfd. Atlas Powder Co.) and 2 parts of a physiological salt solution. Commercially available ICR-JCL female mice (with a body weight of 22±1 g) were used for the toxicity tests, in which the mice were divided into groups, one being subjected to the percutaneous administration (p.c.) and the other group subjected to the oral administration (p.o.) and, one week after the administration their mortality was observed.

[2] = Antimicrobial activity of synthesized versus extracted substance; conditions: synthesis method vs extraction method
Solubility = assay type: physicochemical
[3] = Subacute toxicity, daily administration over 3 months; assay type: in vivo, mice; conditions: every day over 3 months, oral 100 mg/kg and percutaneous 250 mg/kg, respectively
Experimental: Further, in order to determine the subacute toxicity of the present substance, it was administered to mice every day over 3 months via an oral and a percutaneous routes using the dosage of 100 mg/kg and 250 mg/kg, respectively.

Aspergillus niger = test: Antimicrobial spectrum, minimum growth inhibiting concentration (MIC); assay type: cell-based; conditions: 72 h, Sabouraud's medium pH 5 to 6, 25° C., 3 days
Experimental: (§1) The antimicrobial spectrum was determined using Sabouraud's medium. Three hundred milligrams of o-methoxycinnamaldehyde was dissolved in 15 ml of methanol and diluted to give solutions with different concentrations. An aliquot of 0.1 ml of the solutions was charged into a test tube. Each 10 ml of the sterilized Sabouraud's medium of pH of 5 to 6 was charged into each of the above-mentioned test tube and well mixed with the solution of the present substance. A variety of microbial species were provided and each species was suspended in a physiological salt solution in an amount of 10^5 /ml.

Trichophyton rubrum = test: as above; assay type: cell-based; conditions: 72 h, Sabouraud's medium pH 5 to 6, 25° C., 3 days
Experimental: as §1

Cryptococcus neoformans = test: as above; assay type: cell-based; conditions: 72 h, Sabouraud's medium pH 5 to 6, 25° C., 3 days
Experimental: as §1

Microsporum canis = test: as above; assay type: cell-based; conditions: 72 h, Sabouraud's medium pH 5 to 6, 25° C., 3 days
Experimental: as §1

Microsporum gypseum = test: as above; assay type: cell-based; conditions: Nannizzia gypsea, 72 h; Sabouraud's medium pH 5 to 6, 25° C., 3 days
Experimental: as §1

Aspergillus fumigatus = test: as above; assay type: cell-based; conditions: 72 h, Sabouraud's medium pH 5 to 6, 25° C., 3 days
Experimental: as §1

Staphylococcus aureus = test: as above; assay type: cell-based; conditions: 72 h, Sabouraud's medium pH 5 to 6, 25° C., 3 days
Experimental: as §1

[4] = tested on: Trichophyton mentagrophytes; test: as above; assay type: cell-based; conditions: 72 h, Sabouraud's medium pH 5 to 6, 25° C., 3 days
Experimental: as §1

Escherichia coli = test: as above; assay type: cell-based; conditions: 72 h, Sabouraud's medium pH 5 to 6, 25° C., 3 days
Experimental: as §1

Candida albicans = test: as above; assay type: cell-based; conditions: 72 h, Sabouraud's medium pH 5 to 6, 25° C., 3 days
Experimental: as §1

[5] = one week after oral administration

For `COc1ccccc1C=CC=O` [o-methoxycinnamaldehyde], the LD50 at 168 h ([1]; topical or ocular, percutaneous (p.c.)) was 8670 mg/kg, the LD50 at 168 h ([1]; oral (p.o.)) was 4430 mg/kg and the “Autopsy findings in appearance and visceral observation” value [1, 5] was “no specific abnormal finding was obtained in appearance and also in visceral observation”. The Toxic symptom [1, 5] was “no specific toxic sympton was observed”, the “Antimicrobial activity of substance obtained by synthesis compared with that obtained by extraction” value [2] was “identical in physical properties and antimicrobial activity to that obtained from the extraction method” and the “Solubility in methanol, ethanol, acetone, benzene and chloroform” value (Solubility; methanol, ethanol, acetone, benzene and chloroform) was “Soluble in methanol, ethanol, acetone, benzene and chloroform”. The Solubility in water (Solubility; water) was “insoluble in water”, the “Death or abnormal symptom (subacute toxicity)” value [3] was “neither death nor abnormal symptom was observed” and the MIC (Aspergillus niger) was 200 µg/mL (≈ 1230 µM). The MIC (Trichophyton rubrum) was 12.5 µg/mL (≈ 77.1 µM), the MIC (Cryptococcus neoformans) was 12.5 µg/mL (≈ 77.1 µM) and the MIC (Microsporum canis) was 6.25 µg/mL (≈ 38.5 µM). The MIC (Microsporum gypseum) was 25 µg/mL (≈ 154 µM), the MIC (Aspergillus fumigatus) was 100 µg/mL (≈ 617 µM) and the MIC (Staphylococcus aureus) was 50 µg/mL (≈ 308 µM). For the same molecule, the MIC [4] was 12.5 µg/mL (≈ 77.1 µM), the MIC (Escherichia coli) was 60 µg/mL (≈ 370 µM) and the MIC (Candida albicans) was 50 µg/mL (≈ 308 µM).
